Measured values as given in ChEMBL document CHEMBL1201862, “PubChem BioAssay data set” (2004).
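48-hour exposure; five concentrations; linearly interpolated endpoints. At the GI50, growth is halved.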 Activity calls are given as the source filed them. Cut-off read from the data, not from the text of the source: active = GI50 up to about 1.1 µM and inactive = higher.

What was measured:
Test in all cases: NCI anticancer screen, dose series, 48 h
[1] = tested on: HOP-62
[2] = tested on: NCI-H460
[3] = tested on: 786-0
[4] = tested on: OVCAR-8
[5] = tested on: SW-620
[6] = tested on: HT-29
[7] = tested on: OVCAR-4
[8] = tested on: SK-MEL-5
[9] = tested on: CCRF-CEM
[10] = tested on: NCI-H522
[11] = tested on: SK-MEL-2
[12] = tested on: EKVX
[13] = tested on: COLO 205
[14] = tested on: SF-268
[15] = tested on: KM12
[16] = tested on: NCI-H226
[17] = tested on: SN12C
[18] = tested on: HCC 2998

Measured: GI50

CCOc1ccc(OP2(=O)NC(=O)C=C(C)N2)cc1 (stereo unspecified)
inactive: [1] > 100 µM | [2] > 100 µM | [3] 92.9 µM | [4] > 100 µM | [5] > 100 µM | [6] > 100 µM | [7] > 100 µM | [8] > 100 µM | [9] 44.2 µM | [10] > 100 µM | [11] > 100 µM | [12] > 100 µM | [13] > 100 µM | [14] > 100 µM | [15] > 100 µM | [16] > 100 µM | [17] > 100 µM

O=c1oc2cc(O)ccc2c2[nH]c3cc(O)ccc3c12
inactive: [1] 24.3 µM | [2] 33 µM | [3] 30.8 µM | [18] 22.5 µM | [4] 27.2 µM | [5] 34 µM | [6] 35.1 µM | [7] 37.4 µM | [9] 30.8 µM | [10] 11.7 µM | [11] 19.1 µM | [12] 26.5 µM | [13] 23.9 µM | [14] 22.8 µM | [15] 20.9 µM | [16] 21.4 µM | [17] 33.3 µM

CC(C)(C)C1CCC2c3c([nH]c4ccccc34)C3C(=O)N(c4ccccc4)C(=O)C3C2C1 (stereo unspecified)
inactive: [2] 3.7 µM | [3] 7.14 µM | [18] 9.53 µM | [4] 4.84 µM | [5] 8.34 µM | [6] 8.93 µM | [7] 1.86 µM | [8] > 10 µM | [9] 2.77 µM | [12] 14.9 µM | [13] 4.35 µM | [14] 13.6 µM | [15] 21.4 µM | [16] 5.82 µM | [17] 5.3 µM

C[C@@]1(CBr)C[C@@](C)(/C=C/Cl)[C@@H](Cl)C[C@H]1Cl
inactive: [1] 14.2 µM | [3] 14 µM | [18] 16.1 µM | [4] 13.9 µM | [5] 13.9 µM | [6] 9.04 µM | [7] 11.6 µM | [8] 13.3 µM | [9] 2.92 µM | [10] 3.31 µM | [11] 2.74 µM | [12] 18.1 µM | [13] 13.5 µM | [14] 15.9 µM | [15] 7.83 µM | [16] 12.8 µM | [17] 11.7 µM

O=C(N/C(=C\c1c(O)ccc2ccccc12)c1nc2ccccc2[nH]1)c1ccccc1
inactive: [1] 25.9 µM | [2] > 100 µM | [3] 39.8 µM | [18] > 100 µM | [4] 54.8 µM | [5] > 100 µM | [6] > 100 µM | [7] > 100 µM | [8] > 100 µM | [9] > 100 µM | [10] > 100 µM | [11] > 100 µM | [12] > 100 µM | [13] > 100 µM | [14] 64.3 µM | [15] > 100 µM | [17] 92.7 µM

COc1cc(OC)c2c(=O)cc(-c3ccc(OC)c(OC)c3OC)oc2c1
inactive: [1] 27.7 µM | [3] 38.5 µM | [18] > 100 µM | [5] > 100 µM | [6] > 100 µM | [7] 54.3 µM | [9] > 10 µM | [10] 38.9 µM | [11] 60.1 µM | [12] > 100 µM | [13] > 100 µM | [14] 48.2 µM | [15] > 100 µM | [16] > 100 µM | [17] > 100 µM

COc1cc2c(cc1OC)C1(c3ccc(Cl)cc3)ON=C(c3ccccc3)N1CS2 (stereo unspecified)
inactive: [1] > 100 µM | [2] 92 µM | [3] > 100 µM | [18] > 100 µM | [5] > 100 µM | [6] 15.5 µM | [7] > 100 µM | [8] > 100 µM | [9] 41 µM | [10] 58.9 µM | [11] > 100 µM | [12] > 100 µM | [13] > 100 µM | [14] > 100 µM | [15] > 100 µM | [16] > 100 µM | [17] 64.7 µM

NCP(=O)(O)OCC(=O)O
inactive: [1] > 100 µM | [2] > 100 µM | [3] > 100 µM | [4] > 100 µM | [5] > 100 µM | [6] > 100 µM | [7] > 100 µM | [8] > 100 µM | [9] > 100 µM | [10] > 100 µM | [11] > 100 µM | [12] > 100 µM | [13] > 100 µM | [14] > 100 µM | [15] > 100 µM | [17] > 100 µM

CC(=O)O/N=C(Cl)/C(Cl)=N/OC(C)=O
inactive: [1] > 100 µM | [2] > 100 µM | [3] > 100 µM | [18] > 100 µM | [4] > 100 µM | [5] > 100 µM | [6] > 100 µM | [7] > 100 µM | [9] > 100 µM | [10] > 100 µM | [11] > 100 µM | [12] > 100 µM | [14] > 100 µM | [15] > 100 µM | [16] > 100 µM | [17] > 100 µM

O=[N+]([O-])c1cc(/C=N\NS(=O)(=O)c2ccc(Cl)cc2)c(O)c([N+](=O)[O-])c1
inactive: [1] 47.3 µM | [2] 21 µM | [3] 36.1 µM | [18] 85.7 µM | [4] 23 µM | [5] 34.6 µM | [6] 24.9 µM | [7] 36.7 µM | [8] 27.8 µM | [9] 24.4 µM | [10] 24.5 µM | [11] 31.1 µM | [12] > 100 µM | [13] 16.1 µM | [14] 38 µM | [15] 27.5 µM | [17] 25.6 µM

COc1ccc(/C=C2\CNC/C(=C\c3ccc(OC)cc3)C2=O)cc1
inactive: [1] > 100 µM | [2] 47.9 µM | [3] 46.3 µM | [18] 35.3 µM | [4] 16.1 µM | [5] 15.8 µM | [6] 27.2 µM | [7] 76.9 µM | [8] > 100 µM | [9] 12.4 µM | [11] > 100 µM | [12] > 100 µM | [13] 49.4 µM | [14] 24.1 µM | [15] 15.9 µM | [16] > 100 µM | [17] 37.1 µM

ON/N=C/c1cc2c(cc1Br)OCO2
inactive: [1] > 386 µM | [2] > 386 µM | [3] > 386 µM | [18] > 386 µM | [4] > 386 µM | [5] > 386 µM | [6] > 386 µM | [8] > 386 µM | [9] > 386 µM | [10] 230 µM | [11] > 386 µM | [12] 176 µM | [13] > 386 µM | [14] 247 µM | [15] > 386 µM | [16] > 386 µM | [17] > 386 µM

COc1ccc2c([nH]c3cc(O)c(C)cc32)c1C=O
inactive: [1] > 25 µM | [2] 11.2 µM | [3] > 25 µM | [18] > 25 µM | [4] > 25 µM | [5] > 25 µM | [6] > 25 µM | [7] > 25 µM | [8] > 25 µM | [9] 23.6 µM | [10] 20 µM | [11] > 25 µM | [13] > 25 µM | [14] > 25 µM | [15] > 25 µM | [16] > 25 µM | [17] > 25 µM

CCn1c2c(c3ccccc31)C(c1ccccc1)CC1C(=O)N(c3ccccc3)C(=O)C21 (stereo unspecified)
inactive: [1] 87.1 µM | [2] 54.1 µM | [3] 21 µM | [18] 59 µM | [4] 9.59 µM | [5] > 100 µM | [7] > 100 µM | [8] 31.7 µM | [9] > 100 µM | [10] 72.8 µM | [11] 61 µM | [12] 42.8 µM | [13] > 100 µM | [14] > 100 µM | [15] > 100 µM | [16] 31.8 µM | [17] 67.1 µM

N#CC1(C#N)C=CC(=C2OCC3CCCN23)C=C1 (stereo unspecified)
inactive: [1] > 100 µM | [2] > 100 µM | [3] > 100 µM | [18] > 100 µM | [4] > 100 µM | [5] > 100 µM | [6] > 100 µM | [7] > 100 µM | [8] 37.8 µM | [9] 77.1 µM | [10] > 100 µM | [11] > 100 µM | [13] > 100 µM | [14] > 100 µM | [15] > 100 µM | [16] > 100 µM | [17] > 100 µM

C#CC1(O)CCC2[C@@H]3CCc4cc(Oc5nc(F)nc(-c6c7ccccc7c(SCC)n6CCC)n5)ccc4C3CC[C@@]21C (stereo partly specified)
inactive: [1] > 100 µM | [2] > 100 µM | [3] > 100 µM | [18] > 100 µM | [4] > 100 µM | [5] > 100 µM | [6] > 100 µM | [7] > 100 µM | [8] 63.8 µM | [9] 39.4 µM | [10] > 10 µM | [11] 19.9 µM | [12] 59.6 µM | [13] > 100 µM | [14] 57.5 µM | [15] > 100 µM | [16] 20.6 µM
